Source: patent US8318708B2, “Use of vitamin D receptor agonists, ligands, and precursors to treat pancreatic fibrosis” (Salk Institute for Biological Studies, priority 2007, dated 2012)

What was measured:
[1] = target: T1, VDR (Rattus norvegicus, UniProt P13053); test: QPCR of VDR, Cyp24a1 and Hnf4α mRNA in primary rat hepatocytes; format: cell-based; set-up: endogenous in cells; host or cells: primary rat hepatic stellate cells, sinusoidal endothelial cells, Kupffer cells and hepatocytes (Sprague-Dawley rats); details: 24 hours, TGF-β1 2 ng/mL, calcitriol 10 nM
T1 sequence (P13053 1-423): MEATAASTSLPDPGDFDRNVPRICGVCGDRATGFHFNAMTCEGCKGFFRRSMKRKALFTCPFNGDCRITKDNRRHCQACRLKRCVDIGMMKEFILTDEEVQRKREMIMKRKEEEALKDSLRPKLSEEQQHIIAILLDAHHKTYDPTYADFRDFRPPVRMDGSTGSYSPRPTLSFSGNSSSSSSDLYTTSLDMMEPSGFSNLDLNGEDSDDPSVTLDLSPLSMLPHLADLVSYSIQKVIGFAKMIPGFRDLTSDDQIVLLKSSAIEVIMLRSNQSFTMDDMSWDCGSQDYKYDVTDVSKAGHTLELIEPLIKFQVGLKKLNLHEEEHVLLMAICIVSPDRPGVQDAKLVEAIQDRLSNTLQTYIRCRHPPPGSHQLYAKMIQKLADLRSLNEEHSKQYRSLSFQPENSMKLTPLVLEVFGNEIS

[2] = system: primary HSCs; test: Illumina array: TGFβ1-treated primary rat HSCs with vitamin D3 (Table 4); details: rat HSCs 24 h; TGFβ1 100 pM, vitamin D3 1 nM
Procedure: For Illumina microarray analysis, Illumina TotalPrep RNA Amplification Kit (Ambion; Catalog # IL1791) was used with the manufacturer's instructions for the RNA amplification. […] Essentially, biotinylated cRNA was prepared according to the manufacturer's directions starting with 200 ng total RNA. Hybridization to the Illumina Sentrix RatRef-12 v.1 and Mouse RefSeq version 2 Expression BeadChips (Illumina, Inc., San Diego, Calif.), washing and scanning were performed according to the Illumina BeadStation 500× manual (revision C). […] RNA is isolated using Trizol and the quality/integrity of the total RNA verified using a Bioanalyzer (Agilent).
Microarray experiments were repeated two times with RNA from two experiments where HSCs were isolated from two different rats and for each condition triplicate samples were used. The “Detection Score” was used to determine expression using the Illumina platform. It is a statistical measure in the BeadStudio software (version 1.5.0.34), which is computed based on the Z-value of a gene relative to the Z-value of the negative controls. The Illumina data were adjusted (“normalized”) using a cubic spline function. […] The expression difference score, DiffScore, takes into account background noise and sample variability. […] Illumina expression arrays utilize gene-specific 50-mer oligonucleotide probes with an average of 30 replicates of each probe bead per individual array.
The Illumina platform described above was used to identify genome-wide effects of vitamin D3-activated VDR on TGFβ signaling in primary rat HSCs. Isolated primary HSCs were cultured on plastic tissue culture plates for 40 hours prior to treatment with or without vitamin D3 (1 nM) in the presence or absence of TGFβ1 (100 pM) for 24 hours. Cells were then harvested, total RNA extracted, and biotin labeled cRNA was prepared for hybridization to an Illumina Rat RefSeq version 1 genome array. […] The data generated from these arrays was processed using Illumina BeadStudio software to identify gene expression changes between the different samples. The vitamin D3 mediated changes on TGFβ1 signaling were identified by comparing TGFβ1 and co-treated TGFβ1/vitamin D3 samples.

[3] = target: T2, VDR (Homo sapiens, UniProt P11473); test: Real-time qPCR of CYP24A1 in human LX-2 cell line; format: cell-based; details: LX-2 cells overnight; 1,α25(OH)2D3 1 nM, TGF β1 100 pM
T2 construct: endogenous in cells; host or cells: human LX-2 hepatic stellate cell line
T2 sequence (P11473 1-427): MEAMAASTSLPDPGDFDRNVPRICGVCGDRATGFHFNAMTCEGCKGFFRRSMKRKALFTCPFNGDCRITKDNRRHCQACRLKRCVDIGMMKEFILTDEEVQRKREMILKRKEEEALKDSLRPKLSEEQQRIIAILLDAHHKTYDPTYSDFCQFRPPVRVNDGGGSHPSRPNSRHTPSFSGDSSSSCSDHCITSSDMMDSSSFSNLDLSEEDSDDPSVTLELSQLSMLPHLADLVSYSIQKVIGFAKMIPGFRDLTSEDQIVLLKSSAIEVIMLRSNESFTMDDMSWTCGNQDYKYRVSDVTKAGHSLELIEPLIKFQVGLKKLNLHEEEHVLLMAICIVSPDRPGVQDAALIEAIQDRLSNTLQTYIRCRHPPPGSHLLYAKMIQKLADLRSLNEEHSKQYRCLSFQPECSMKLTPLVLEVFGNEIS
Procedure: Human LX-2 cells were grown to 50% confluence in DMEM with 10% FBS in 6-Well plates.
For qRT-PCR, 500 ng of deoxyribonuclease-treated total RNA was reverse transcribed into cDNA using SuperScript™ III reverse transcriptase essentially as described by the manufacturer (Invitrogen). Quantification of gene of interest mRNA was performed using a Rotor-Gene, RG 6000 (Corbett Research). […] Human B2M primers were from Applied Biosystems.
TGFβ signaling is the key mediator in hepatic fibrogenesis, triggering the transition of HSCs into myofibroblast-like cells and thereby stimulating synthesis of ECM proteins. Thus, TGFβ1 is produced locally in the organ as part of the fibrotic process It has been previously reported that TGFB signaling can influence the activity of VDR-dependent genes, as depicted in (FIG. 8A). In this model, TGFβ activation results in SMAD3 phosphorylation, inducing its translocation into the nucleus where it associates with the ligand bound VDR complex. Phosphorylated SMAD3 acts as a co-activator in the VDR/vitaminD3 complex enhancing the transcriptional potential of VDR on target genes. To understand the interplay between TGFB and VDR signaling pathways, the effects of TGFβ on the well characterized VDR gene target Cyp24α1 were examined.

[4] = target: T1, VDR; test: Western blot of VDR in Kupffer cells (KCs); format: cell-based; set-up: endogenous in cells; host or cells: primary rat hepatic stellate cells, sinusoidal endothelial cells, Kupffer cells and hepatocytes (Sprague-Dawley rats); details: FIG. 10B
Text: Hepatic sinusoidal endothelial cells (SECs) and Kupffer cells (KCs) were elutriated from rat liver and maintained in cell culture.

[5] = system: VDR; test: Western blot of VDR in hepatocytes treated with TGF-β1; format: cell-based, rat; human; details: TGF-β1 2 ng/mL, 24 hours, FIG. 14
Procedure: Primary rat hepatocytes were isolated from Sprague-Dawley rats by collagenase in situ perfusion and plated on collagen in Williams E medium. The immortalized human hepatocyte (IHH) cell line was cultured in DMEM/F12+GlutaMax with insulin and dexamethasone. Primary rat hepatocytes or immortalized human hepatocytes were cultured for two days, then subsequently treated with TGF-β1 (2 ng/mL human, recombinant expressed in CHO cells from Sigma-Aldrich, # T7039) for 24 hours and compared to untreated controls. Protein was prepared from harvested cells and western blotting for VDR was accomplished using a specific anti-VDR antibody (anti-human VDR antibody from R&D systems CAT # PP-H4537-00 and rat anti-VDR monoclonal antibody from Chemocon International CAT # MAB1360). Recombinant human VDR protein was included as a positive control.

[6] = system: hepatocytes; test: Illumina Sentrix arrays: hepatocytes treated with TGF-β1 and calcitriol (Tables 9 and 10); format: cell-based; details: rat hepatocytes, TGF-β1 2 ng/mL, 24 h
Procedure: Cells were cultured and treated as described in Example 14. Gene expression was determined using Illumina Sentrix expression arrays, rat version 1, according to the manufacturer's instructions.
Triplicate biologic replicates were assayed for each treatment.

Substance: TGF-β1: transforming growth factor beta 1; human recombinant from Sigma-Aldrich T7039
- Cyp24a1 mRNA expression [1]: no effect
- HNF4α expression [1]: some increase
- VDR mRNA expression [1]: capable of inducing
- Mmp10 gene change [2]: ↓
- Mmp13 gene change [2]: N/C
- CYP24a1 gene expression (QPCR, normalized to 36B4) [3]: no effect
- VDR protein expression [4]: induced
- Increase in VDR expression (western blot) [5]: at least 5 fold
- Abcb4 gene expression [6]: 96.93
- Abcg2 gene expression [6]: 913.91
- Abcg4 gene expression [6]: 95.82
- Ccl3 gene expression [6]: 540.53
- Ccl4 gene expression [6]: 380.06
- Ccl7 gene expression [6]: 1303.89
- Ccl12 gene expression [6]: 368.02
- Cd44 gene expression [6]: 680.16
- Cxcr4 gene expression [6]: 164.68
- Cyp1a2 gene expression [6]: 135.53
- Cyp2d1 gene expression [6]: 147.68
- Cyp2d5 gene expression [6]: 338.34
- Cyp3a23/3a1 gene expression [6]: 380.28
- Gstm1 gene expression [6]: 2230.15
- Gstm2 gene expression [6]: 715.15
- Gsto1 gene expression [6]: 1364.06
- Il1a gene expression [6]: 675.41
- Il1b gene expression [6]: 1551.37
- Jak2 gene expression [6]: 669.28
- Mmp9 gene expression [6]: 159.27
- Nos2 gene expression [6]: 90.7
- Slc7a6os gene expression [6]: 241.22
- Slc25a4 gene expression [6]: 671.16
- Slc25a19 gene expression [6]: 195.9
- Slc28a1 gene expression [6]: 50.32
- Slc28a2 gene expression [6]: 157.29
- Slc35a4 gene expression [6]: 157.88
- Slc37a4 gene expression [6]: 246.55
- Tlr2 gene expression [6]: 978.98
- Tlr7 gene expression [6]: 110.03
- Ugt2b5 gene expression [6]: 155.32
- cyp2a1 gene expression [6]: 216.95
- cyp2c22 gene expression [6]: 2009.34
- cyp4a10 gene expression [6]: 91.71
- cyp24a1 gene expression [6]: 56.9
- slc25a1 gene expression [6]: 1375.94
- slc25a5 gene expression [6]: 2038.43
- slc26a1 gene expression [6]: 181.21
- slc39a1 gene expression [6]: 489.71
